For this experiment, the target named is Growth hormone secretagogue receptor type 1 (Homo sapiens, UniProt Q92847). Nature of the experiment: ChEBML_72507. The text has this: Inhibition of ghrelin binding to Growth hormone secretagogue receptor expressed in BHK cells

Some results are limits rather than exact numbers.

Chain of Growth hormone secretagogue receptor type 1 (Q92847 whole entry): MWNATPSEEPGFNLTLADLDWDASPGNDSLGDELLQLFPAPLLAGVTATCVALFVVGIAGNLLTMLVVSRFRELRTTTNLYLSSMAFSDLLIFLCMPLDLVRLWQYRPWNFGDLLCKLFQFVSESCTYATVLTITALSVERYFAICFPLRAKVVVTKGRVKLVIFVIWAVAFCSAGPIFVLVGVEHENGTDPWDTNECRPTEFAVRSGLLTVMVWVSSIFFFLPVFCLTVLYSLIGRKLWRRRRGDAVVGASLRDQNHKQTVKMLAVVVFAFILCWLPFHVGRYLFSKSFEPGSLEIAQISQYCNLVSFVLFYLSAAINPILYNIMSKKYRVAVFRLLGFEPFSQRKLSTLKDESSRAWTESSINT

Broadly, the IC50 is the concentration needed to halve the response being measured. High values mean a need for much substance, low ones inhibition by little substance. As to `CN(C)C(=O)CCn1c(O)c(CCc2ccccc2)n(Cc2ccc(-c3ccccc3-c3nnn[nH]3)cc2)c1=O` [3-{(S)-2,5-Dioxo-4-phenethyl-3-[2'-(2H-tetrazol-5-yl)-biphenyl-4-ylmethyl]-imidazolidin-1-yl}-N,N-dimethyl-propionamide], the IC50 was > 100 µM.

For the compound `NCCCn1c(O)c(CCc2ccccc2)n(Cc2ccc(-c3ccccc3-c3nnn[nH]3)cc2)c1=O` [(S)-3-(3-Amino-propyl)-5-phenethyl-1-[2'-(2H-tetrazol-5-yl)-biphenyl-4-ylmethyl]-imidazolidine-2,4-dione], the IC50 was > 100 µM.

Take `CN(C)CCCn1c(O)c(-c2ccccc2)n(Cc2ccc(-c3ccccc3-c3nnn[nH]3)cc2)c1=S` [(S)-3-(3-Dimethylamino-propyl)-5-phenyl-1-[2'-(2H-tetrazol-5-yl)-biphenyl-4-ylmethyl]-2-thioxo-imidazolidin-4-one]: the IC50 is 35 µM.

As to `CN(C)c1ccc(-n2c(O)c(CCc3ccccc3)n(Cc3ccc(-c4ccccc4-c4nnn[nH]4)cc3)c2=S)cc1` [(S)-3-(4-Dimethylamino-phenyl)-5-phenethyl-1-[2'-(2H-tetrazol-5-yl)-biphenyl-4-ylmethyl]-2-thioxo-imidazolidin-4-one], the IC50 was > 100 µM.

In turn, `CN(C)CCCn1c(O)c(Cc2ccccc2)n(Cc2ccc(-c3ccccc3-c3nnn[nH]3)cc2)c1=S` [(S)-5-Benzyl-3-(3-dimethylamino-propyl)-1-[2'-(2H-tetrazol-5-yl)-biphenyl-4-ylmethyl]-2-thioxo-imidazolidin-4-one] returned an IC50 of 35 µM.
